Test results reported in PubChem BioAssay AID248 (DTP/NCI, 2004).
Values joined by “and” are separate entries in the source; they are usually repeats but may differ in a detail not shown here. Identical values can stand only once. Inconclusive results and toxic doses are left out. Cut-off read from the data, not from the text of the source: active = T/C of 150% or more; inactive = T/C below 125%.

System: L1210 leukemia ip in BDF1 mice, survival T/C
Assay: NCI In Vivo Anticancer Drug Screen. Data for tumor model L1210 Leukemia (intraperitoneal) in B6D2F1 (BDF1) mice
Conditions: endpoint: mean survival time, higher = longer survival
How it was run: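 Ratio derived from survival: compound-dosed mice over vehicle-dosed mice, all bearing a transplantable tumor.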

[1] = dose: 100.0 mg/kg/injection, schedule: Q01DX001 (ip), vehicle: carboxymethylcellulose (CMC)
[2] = dose: 200.0 mg/kg/injection, schedule: Q01DX001 (ip), vehicle: carboxymethylcellulose (CMC)
[3] = dose: 400.0 mg/kg/injection, schedule: Q01DX001 (ip), vehicle: carboxymethylcellulose (CMC)
[4] = dose: 50.0 mg/kg/injection, schedule: Q01DX009 (ip), vehicle: saline with Tween-80
[5] = dose: 100.0 mg/kg/injection, schedule: Q01DX009 (ip), vehicle: saline with Tween-80
[6] = dose: 100.0 mg/kg/injection, schedule: Q04DX003 (ip), vehicle: saline with Tween-80
[7] = dose: 200.0 mg/kg/injection, schedule: Q04DX003 (ip), vehicle: saline with Tween-80
[8] = dose: 400.0 mg/kg/injection, schedule: Q04DX003 (ip), vehicle: saline with Tween-80
[9] = dose: 25.0 mg/kg/injection, schedule: Q01DX009 (ip), vehicle: saline with Tween-80
[10] = dose: 50.0 mg/kg/injection, schedule: Q01DX009 (ip), vehicle: Klucel (hydroxypropylcellulose) (HPC)
[11] = dose: 100.0 mg/kg/injection, schedule: Q01DX009 (ip), vehicle: Klucel (hydroxypropylcellulose) (HPC)
[12] = dose: 100.0 mg/kg/injection, schedule: Q04DX003 (ip), vehicle: Klucel (hydroxypropylcellulose) (HPC)
[13] = dose: 200.0 mg/kg/injection, schedule: Q04DX003 (ip), vehicle: Klucel (hydroxypropylcellulose) (HPC)
[14] = dose: 100.0 mg/kg/injection, schedule: Q01DX009 (ip), vehicle: saline
[15] = dose: 100.0 mg/kg/injection, schedule: Q04DX003 (ip), vehicle: saline
[16] = dose: 200.0 mg/kg/injection, schedule: Q01DX009 (ip), vehicle: saline
[17] = dose: 200.0 mg/kg/injection, schedule: Q04DX003 (ip), vehicle: saline
[18] = dose: 400.0 mg/kg/injection, schedule: Q01DX009 (ip), vehicle: saline
[19] = dose: 400.0 mg/kg/injection, schedule: Q04DX003 (ip), vehicle: saline
[20] = dose: 50.0 mg/kg/injection, schedule: Q01DX009 (ip), vehicle: saline
[21] = dose: 400.0 mg/kg/injection, schedule: Q04DX003 (ip), vehicle: Klucel (hydroxypropylcellulose) (HPC)

Measured: T/C

CCC1CN1P1(=O)OCC(CC)([N+](=O)[O-])CO1 (stereo not given)
inactive: [1] 90 % of control | [2] 101 % of control | [3] 97 % of control

CN1CCc2ccc(Oc3cccc4c3CCN(C)C4)cc2C1
inactive: dose: 75.0 mg/kg/injection, schedule: Q01DX001 (ip), vehicle: other 112 % of control | dose: 150.0 mg/kg/injection, schedule: Q01DX001 (ip), vehicle: other 92 % of control

CCCCCCCC(N)=O
inactive: [4] 97 % of control | [5] 107 % of control and 90 % of control | [6] 100 % of control | dose: 200.0 mg/kg/injection, schedule: Q01DX009 (ip), vehicle: saline with Tween-80 97 % of control and 106 % of control | [7] 93 % of control | dose: 400.0 mg/kg/injection, schedule: Q01DX009 (ip), vehicle: saline with Tween-80 114 % of control | [8] 91 % of control

Oc1ccc(Cl)cc1Br
inactive: [9] 100 % of control | [4] 88 % of control | [5] 100 % of control

CCCC(OC(C)=O)C(Cl)(Cl)Cl (stereo not given)
inactive: [10] 103 % of control | [11] 107 % of control | [12] 97 % of control | [13] 97 % of control

CCOC(=O)C1OC1(C)c1ccccc1 (stereo not given)
inactive: [14] 102 % of control | [15] 100 % of control | [16] 100 % of control | [17] 94 % of control | [18] 102 % of control | [19] 107 % of control

CN(C)CCCN=C(N)CCl
inactive: dose: 12.5 mg/kg/injection, schedule: Q04DX002 (ip), vehicle: saline 101 % of control | dose: 25.0 mg/kg/injection, schedule: Q04DX002 (ip), vehicle: saline 108 % of control | dose: 50.0 mg/kg/injection, schedule: Q04DX002 (ip), vehicle: saline 87 % of control | dose: 100.0 mg/kg/injection, schedule: Q04DX002 (ip), vehicle: saline 97 % of control

CN(C)N=Nc1c[nH]c(=O)[nH]c1=O
inactive: dose: 10.0 mg/kg/injection, schedule: Q01DX001 (ip), vehicle: saline 108 % of control | dose: 20.0 mg/kg/injection, schedule: Q01DX001 (ip), vehicle: saline 120 % of control | dose: 40.0 mg/kg/injection, schedule: Q01DX001 (ip), vehicle: saline 123 % of control

O=C(O)C1CCC=CCC1
inactive: dose: 50.0 mg/kg/injection, schedule: Q01DX009 (ip), vehicle: other 91 % of control | dose: 100.0 mg/kg/injection, schedule: Q01DX009 (ip), vehicle: other 96 % of control | dose: 200.0 mg/kg/injection, schedule: Q01DX009 (ip), vehicle: other 98 % of control

O=[N+]([O-])c1ccc(Oc2ccc(Br)cc2)c([N+](=O)[O-])c1
inactive: dose: 100.0 mg/kg/injection, schedule: Q04DX002 (ip), vehicle: Klucel (hydroxypropylcellulose) (HPC) 103 % of control | dose: 200.0 mg/kg/injection, schedule: Q04DX002 (ip), vehicle: Klucel (hydroxypropylcellulose) (HPC) 93 % of control | dose: 400.0 mg/kg/injection, schedule: Q04DX002 (ip), vehicle: Klucel (hydroxypropylcellulose) (HPC) 97 % of control

CCOC1OCN(C)CC1(C)C (stereo not given)
inactive: [20] 93 % of control | [14] 109 % of control | [15] 101 % of control | dose: 132.0 mg/kg/injection, schedule: Q01DX009 (ip), vehicle: saline sonified 113 % of control | dose: 200.0 mg/kg/injection, schedule: Q01DX009 (ip), vehicle: saline sonified 118 % of control | [17] 97 % of control

CCOC(=O)C(Nc1ccccc1)C(=O)OCC
inactive: [6] 92 % of control | [7] 97 % of control | [8] 100 % of control

O=c1cc(NCc2c(Cl)cccc2[N+](=O)[O-])[nH]c(=O)[nH]1
inactive: [12] 98 % of control | [13] 95 % of control | [21] 95 % of control

Nc1ccc(CCc2ccc(N)cc2[N+](=O)[O-])c([N+](=O)[O-])c1
inactive: [11] 101 % of control | [12] 96 % of control | dose: 200.0 mg/kg/injection, schedule: Q01DX009 (ip), vehicle: Klucel (hydroxypropylcellulose) (HPC) 101 % of control | [13] 109 % of control | dose: 400.0 mg/kg/injection, schedule: Q01DX009 (ip), vehicle: Klucel (hydroxypropylcellulose) (HPC) 92 % of control | [21] 90 % of control

N=c1cc(-c2ccc(Cl)cc2)ss1
inactive: [20] 91 % of control | [14] 97 % of control | [15] 100 % of control | [16] 91 % of control | [17] 92 % of control

COC(=O)c1ccc(OC(=O)Nc2ccccc2F)cc1
inactive: [9] 106 % of control | [4] 119 % of control | [5] 95 % of control and 108 % of control

C/C(=C\Br)OC1CCCCO1 (stereo not given)
inactive: dose: 100.0 mg/kg/injection, schedule: Q01DX009 (ip), vehicle: acetone 96 % of control | dose: 200.0 mg/kg/injection, schedule: Q01DX009 (ip), vehicle: acetone 96 % of control | dose: 400.0 mg/kg/injection, schedule: Q01DX009 (ip), vehicle: acetone 92 % of control

COc1ccc2c(c1)CCC1=C2CCC(C)(C(C)=O)C1C(=O)O (stereo not given)
inactive: dose: 25.0 mg/kg/injection, schedule: Q01DX009 (ip), vehicle: Klucel (hydroxypropylcellulose) (HPC) 101 % of control | dose: 25.0 mg/kg/injection, schedule: Q04DX003 (ip), vehicle: Klucel (hydroxypropylcellulose) (HPC) 97 % of control | [10] 98 % of control | dose: 50.0 mg/kg/injection, schedule: Q04DX003 (ip), vehicle: Klucel (hydroxypropylcellulose) (HPC) 100 % of control | [11] 95 % of control | [12] 102 % of control and 87 % of control

CCCCCCCCCC(C)CC1CCCCC1 (stereo not given)
inactive: dose: 100.0 mg/kg/injection, schedule: Q01DX001 (ip), vehicle: saline with Tween-80 96 % of control | dose: 200.0 mg/kg/injection, schedule: Q01DX001 (ip), vehicle: saline with Tween-80 96 % of control

C1=C(c2ccccc2)C(c2ccccc2)c2ccccc21 (stereo not given)
inactive: dose: 12.5 mg/kg/injection, schedule: Q04DX002 (ip), vehicle: saline with Tween-80 90 % of control | dose: 25.0 mg/kg/injection, schedule: Q04DX002 (ip), vehicle: saline with Tween-80 98 % of control | dose: 50.0 mg/kg/injection, schedule: Q04DX002 (ip), vehicle: saline with Tween-80 90 % of control | [8] 90 % of control

O=S(=O)(O)c1ccc2c(O)cc(S(=O)(=O)O)cc2c1
inactive: [14] 106 % of control | [15] 95 % of control | [16] 112 % of control | [18] 103 % of control | [19] 100 % of control

Fc1c(F)c(F)c(/C=N/Nc2nnc(N/N=C/c3c(F)c(F)c(F)c(F)c3F)c3ccccc23)c(F)c1F
inactive: dose: 50.0 mg/kg/injection, schedule: Q01DX001 (ip), vehicle: carboxymethylcellulose (CMC) 93 % of control | [1] 95 % of control | [2] 98 % of control | [3] 95 % of control

Nc1c(Cl)ncn2[nH]c(=O)nc12
inactive: [1] 96 % of control | [2] 100 % of control
